Values of other authors as cited in patent publication US20220134131A1, “ENERGY AUGMENTATION STRUCTURES FOR MEASURING AND THERAPEUTIC USES” (IMMUNOLIGHT, LLC, priority 2019, published 2022).

Test system: HT-29 cells

**Q.** With `OO` [H2O2, hydrogen peroxide] as the compound, how does the “effect of application on HT-29 cells” value read?
**A.** Its value is “caused their death”.
